Experimental data taken from PubChem BioAssay AID330 (DTP/NCI, 2004).
Where “and” joins values, the source holds several entries; their conditions need not be identical. Equal entries are not always repeated. Inconclusive results and toxic doses are left out. The calls were made as follows: active = survival T/C of 150% or more; inactive = T/C below 125% in these data.

System: P388 leukemia ip, CD2F1 mice, survival T/C
Experiment: NCI In Vivo Anticancer Drug Screen. Data for tumor model P388 Leukemia (intraperitoneal) in CD2F1 (CDF1) mice
Conditions: endpoint: median survival time, higher = longer survival
Summary of the method: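 Mice carrying the transplanted tumor received test compound or vehicle. Survival was recorded in each group, and the value is the treated-group measurement divided by that of the vehicle-treated control group.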

[1] = dose: 12.5 mg/kg/injection, schedule: Q01DX005 (ip), vehicle: Klucel (hydroxypropylcellulose) (HPC)
[2] = dose: 25.0 mg/kg/injection, schedule: Q01DX005 (ip), vehicle: Klucel (hydroxypropylcellulose) (HPC)
[3] = dose: 50.0 mg/kg/injection, schedule: Q01DX009 (ip), vehicle: Klucel (hydroxypropylcellulose) (HPC)
[4] = dose: 50.0 mg/kg/injection, schedule: Q01DX005 (ip), vehicle: Klucel (hydroxypropylcellulose) (HPC)
[5] = dose: 100.0 mg/kg/injection, schedule: Q01DX005 (ip), vehicle: Klucel (hydroxypropylcellulose) (HPC)
[6] = dose: 200.0 mg/kg/injection, schedule: Q01DX005 (ip), vehicle: Klucel (hydroxypropylcellulose) (HPC)
[7] = dose: 50.0 mg/kg/injection, schedule: Q01DX005 (ip), vehicle: saline with Tween-80
[8] = dose: 100.0 mg/kg/injection, schedule: Q01DX005 (ip), vehicle: saline with Tween-80
[9] = dose: 200.0 mg/kg/injection, schedule: Q01DX005 (ip), vehicle: saline with Tween-80
[10] = dose: 6.25 mg/kg/injection, schedule: Q01DX009 (ip), vehicle: saline
[11] = dose: 12.5 mg/kg/injection, schedule: Q01DX009 (ip), vehicle: saline
[12] = dose: 25.0 mg/kg/injection, schedule: Q01DX009 (ip), vehicle: saline with Tween-80
[13] = dose: 25.0 mg/kg/injection, schedule: Q01DX009 (ip), vehicle: saline
[14] = dose: 100.0 mg/kg/injection, schedule: Q01DX009 (ip), vehicle: saline with Tween-80
[15] = dose: 50.0 mg/kg/injection, schedule: Q01DX009 (ip), vehicle: saline with Tween-80
[16] = dose: 60.0 mg/kg/injection, schedule: Q01DX005 (ip), vehicle: saline with Tween-80
[17] = dose: 120.0 mg/kg/injection, schedule: Q01DX005 (ip), vehicle: saline with Tween-80
[18] = dose: 240.0 mg/kg/injection, schedule: Q01DX005 (ip), vehicle: saline with Tween-80

Measured: T/C

CC1(C)C(=O)N(Cl)C(=O)N1Cl
inactive: dose: 6.25 mg/kg/injection, schedule: Q01DX005 (ip), vehicle: Klucel (hydroxypropylcellulose) (HPC) 100 % of control and 95 % of control | dose: 6.25 mg/kg/injection, schedule: Q01DX005 (ip), vehicle: saline with Tween-80 92 % of control | [1] 102 % of control and 101 % of control | dose: 12.5 mg/kg/injection, schedule: Q01DX005 (ip), vehicle: saline with Tween-80 87 % of control | dose: 16.5 mg/kg/injection, schedule: Q01DX009 (ip), vehicle: saline with Tween-80 104 % of control | [2] 106 % of control | dose: 25.0 mg/kg/injection, schedule: Q01DX005 (ip), vehicle: saline with Tween-80 97 % of control

NN=c1c2ccccc2oc2ccccc12
inactive: [3] 112 % of control | dose: 100.0 mg/kg/injection, schedule: Q01DX009 (ip), vehicle: Klucel (hydroxypropylcellulose) (HPC) 115 % of control | dose: 200.0 mg/kg/injection, schedule: Q01DX009 (ip), vehicle: Klucel (hydroxypropylcellulose) (HPC) 115 % of control

O=C1/C(=C/c2cccc(O)c2O)SC(=S)N1Cc1ccco1
inactive: [4] 102 % of control | [5] 106 % of control | [6] 103 % of control

CCN(CC)CCNc1cccc2oc3ccc(OS(=O)(=O)c4ccc(C)cc4)cc3c(=O)c12
inactive: [7] 97 % of control | [8] 100 % of control | [9] 102 % of control

Clc1nnn(-c2ccccc2)n1
inactive: dose: 62.5 mg/kg/injection, schedule: Q04DX002 (ip), vehicle: saline with Tween-80 101 % of control | dose: 125.0 mg/kg/injection, schedule: Q04DX002 (ip), vehicle: saline with Tween-80 100 % of control

CCOC(=O)Nc1nc2ccccc2n1CN1CCOCC1
inactive: [2] 106 % of control | [4] 106 % of control | [5] 105 % of control | [6] 115 % of control

CCC(SC)C(=O)N(C)c1ccccc1 (configuration not stated)
inactive: [10] 104 % of control | [11] 107 % of control | [12] 90 % of control | [13] 114 % of control | [14] 109 % of control

CCOC(=O)N(C)C(C)Cc1ccccc1 (configuration not stated)
inactive: [15] 100 % of control | [14] 104 % of control | dose: 200.0 mg/kg/injection, schedule: Q01DX009 (ip), vehicle: saline with Tween-80 108 % of control

CCC(=O)/C(=C\c1ccccc1Cl)C(C)=O
inactive: dose: 100.0 mg/kg/injection, schedule: Q04DX003 (ip), vehicle: saline with Tween-80 105 % of control | dose: 200.0 mg/kg/injection, schedule: Q04DX003 (ip), vehicle: saline with Tween-80 110 % of control | dose: 400.0 mg/kg/injection, schedule: Q04DX003 (ip), vehicle: saline with Tween-80 95 % of control

c1ccc(C2=C([P+](c3ccccc3)(c3ccccc3)c3ccccc3)CCO2)cc1
inactive: dose: 1.56 mg/kg/injection, schedule: Q01DX009 (ip), vehicle: saline 110 % of control and 117 % of control | dose: 2.6 mg/kg/injection, schedule: Q01DX009 (ip), vehicle: saline 114 % of control | dose: 3.13 mg/kg/injection, schedule: Q01DX009 (ip), vehicle: saline 119 % of control and 120 % of control | dose: 4.0 mg/kg/injection, schedule: Q01DX009 (ip), vehicle: saline 114 % of control | dose: 6.0 mg/kg/injection, schedule: Q01DX009 (ip), vehicle: saline 117 % of control | [10] 124 % of control | dose: 9.0 mg/kg/injection, schedule: Q01DX009 (ip), vehicle: saline 118 % of control | [11] 100 % of control and 109 % of control

COc1ccc2nc(N/N=C(/c3ccccc3)c3ccccn3)cc(C)c2c1
inactive: [7] 107 % of control | [8] 100 % of control | [9] 100 % of control

CC1=C(C)C(=O)c2c(c(O)c3ccccc3c2Cl)C1=O
inactive: dose: 0.75 mg/kg/injection, schedule: Q01DX005 (ip), vehicle: saline with Tween-80 96 % of control | dose: 1.5 mg/kg/injection, schedule: Q01DX005 (ip), vehicle: saline with Tween-80 89 % of control | dose: 3.0 mg/kg/injection, schedule: Q01DX005 (ip), vehicle: saline with Tween-80 91 % of control | [9] 93 % of control

C=C(C)C1CCC2=CC(CC3(C)OC3C3=CC(C(=O)OC)=C(C1)O3)OC2=O (configuration not stated)
inactive: dose: 12.5 mg/kg/injection, schedule: Q01DX009 (ip), vehicle: Klucel (hydroxypropylcellulose) (HPC) 99 % of control | dose: 25.0 mg/kg/injection, schedule: Q01DX009 (ip), vehicle: Klucel (hydroxypropylcellulose) (HPC) 104 % of control | [3] 100 % of control

Nc1nc(-c2ccc([N+](=O)[O-])cc2)c([N+](=O)[O-])c(=O)[nH]1
inactive: dose: 3.0 mg/kg/injection, schedule: Q01DX009 (ip), vehicle: saline with Tween-80 105 % of control | dose: 6.0 mg/kg/injection, schedule: Q01DX009 (ip), vehicle: saline with Tween-80 110 % of control | dose: 12.0 mg/kg/injection, schedule: Q01DX009 (ip), vehicle: saline with Tween-80 110 % of control

Cc1ccc(N=Nc2c(-c3cccs3)nn(C(N)=S)c2C(F)(F)F)cc1
inactive: [1] 103 % of control | [2] 98 % of control | [4] 98 % of control

CCOC(=O)C1C(c2cc(OC)c(OC)c(OC)c2)c2cc3c(cc2OC1(C)OC)OCO3 (configuration not stated)
inactive: [16] 86 % of control | [17] 86 % of control | [18] 88 % of control

COC(=N)CCSSCCC(=N)OC
inactive: [13] 102 % of control | dose: 50.0 mg/kg/injection, schedule: Q01DX009 (ip), vehicle: saline 105 % of control | dose: 100.0 mg/kg/injection, schedule: Q01DX009 (ip), vehicle: saline 106 % of control | dose: 100.0 mg/kg/injection, schedule: Q01DX009 (ip), vehicle: suspension in saline 101 % of control

COc1ccc(N2C(=O)/C(=C/c3ccccc3)N=C2/C=C/c2ccc(Cl)cc2)cc1
inactive: dose: 15.0 mg/kg/injection, schedule: Q01DX005 (ip), vehicle: Klucel + Tween-80 93 % of control | dose: 30.0 mg/kg/injection, schedule: Q01DX005 (ip), vehicle: Klucel + Tween-80 95 % of control | dose: 60.0 mg/kg/injection, schedule: Q01DX005 (ip), vehicle: Klucel + Tween-80 107 % of control and 96 % of control

CCCCNc1ccc(Nc2ccccc2)cc1
inactive: dose: 6.25 mg/kg/injection, schedule: Q01DX009 (ip), vehicle: saline with Tween-80 95 % of control | dose: 12.5 mg/kg/injection, schedule: Q01DX009 (ip), vehicle: saline with Tween-80 108 % of control | [12] 115 % of control | [15] 121 % of control

CCSc1nnc(C2CCC(=O)N2Cc2ccccc2)o1 (configuration not stated)
inactive: [16] 94 % of control | [17] 100 % of control | [18] 100 % of control

O=c1[nH]cc(Cn2cnc3ncccc3c2=O)c(=O)[nH]1
inactive: dose: 100.0 mg/kg/injection, schedule: Q01DX001 (ip), vehicle: suspension in saline 93 % of control | dose: 200.0 mg/kg/injection, schedule: Q01DX001 (ip), vehicle: suspension in saline 105 % of control | dose: 400.0 mg/kg/injection, schedule: Q01DX001 (ip), vehicle: suspension in saline 112 % of control

NS(=O)(=O)c1cc2c(cc1Cl)NC(CCC(=O)O)=NS2(=O)=O
inactive: dose: 12.5 mg/kg/injection, schedule: Q01DX009 (ip), vehicle: distilled water + Tween-80 93 % of control | dose: 25.0 mg/kg/injection, schedule: Q01DX009 (ip), vehicle: distilled water + Tween-80 102 % of control | dose: 25.0 mg/kg/injection, schedule: Q01DX009 (ip), vehicle: other 92 % of control | dose: 50.0 mg/kg/injection, schedule: Q01DX009 (ip), vehicle: distilled water + Tween-80 98 % of control | dose: 50.0 mg/kg/injection, schedule: Q01DX009 (ip), vehicle: other 90 % of control | dose: 100.0 mg/kg/injection, schedule: Q01DX009 (ip), vehicle: distilled water + Tween-80 102 % of control | dose: 100.0 mg/kg/injection, schedule: Q01DX009 (ip), vehicle: other 90 % of control | dose: 200.0 mg/kg/injection, schedule: Q01DX009 (ip), vehicle: distilled water + Tween-80 102 % of control | dose: 400.0 mg/kg/injection, schedule: Q01DX009 (ip), vehicle: distilled water + Tween-80 98 % of control | dose: 400.0 mg/kg/injection, schedule: Q01DX009 (ip), vehicle: other 97 % of control
